# Values joined by “and” are separate entries in the source; they are usually repeats but may differ in a detail not shown here. Identical values can stand only once.
# How the values were obtained:
# [1] = target: T1, splenic Amyloid A fibrils (Mus musculus, UniProt P05367); test: Acute AEF-AgNO3-induced amyloidosis mouse model (secondary amyloidosis); format: in vivo, mice; conditions: for % PC (splenic AA fibrils, % of positive control): 5 days; for Activity (in vivo, secondary amyloidosis): overall grade over the concentrations tested
# T1 construct: from tissue; host or cells: spleen of CBA/J mice (AEF/AgNO3-induced amyloidosis)
# T1 sequence (P05367 20-95 limits assumed): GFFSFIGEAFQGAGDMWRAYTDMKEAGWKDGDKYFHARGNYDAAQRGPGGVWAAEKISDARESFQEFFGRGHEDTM
# Description: The in vivo screening is based on the acute AEF-AgNO3-induced amyloidosis mouse model. The test is conducted on a total of 6 days and each compound administered in the drinking solution for a 5-day period.
# Female mice of CBA/J strain are individually identified, weighed and assigned to a group of 5 animals following an acclimation period. The amyloidosis is induced by intravenous injection of 100 μg of AEF (amyloid enhancing factor) concomitantly with a subcutaneous injection of 0.5 ml of 2% of a solution of AgNO3. Animals in the negative control group are injected with saline only.
# Twenty-four hours following the amyloidosis induction, the compound is added to a 1% solution of sucrose (vehicle) and distributed to animals in drinking bottles for a period of 5 days. Animals in the positive control group receive the vehicle only. Drinking solutions are made available ad libitum to each group of animals and the volume measured before and after use to calculate the consumption of each solution. Blood samples are collected for in vitro determination of plasma serum amyloid A levels.
# On day 6, mice are sacrificed, weighed and organs such as spleen are existed and fixed in acid alcohol. Spleen samples are processed, embedded in paraffin wax and cut inyo sections. Spleen sections from each animal are stained with the Congo Red staining solution and the splenic Amyloid A fibrils aggregation evaluated by image analysis. Results are expressed as % of AA fibrils deposited in the splenic perifollicular area. Raw data is analyzed.
# Mean of mouse body weight and the mean consumption of the drinking solution (ml) are compiled. Variation of the body weight before the induction and at the end of the assay is calculated (%). The dose level of the compound consumed (mg/kg/day) is calculated as well.
# P-values for Student t-test and Mann-Whitney tests comparing a group to the positive control are calculated using GraphPad Prism computer software. The mean of the image analysis reading of spleen serious for a group is expressed as percentage of the mean of the image analysis readings for the positive control group (% PC).
# [2] = target: T2, Aβ(1-40) (Homo sapiens, UniProt P05067); test: Circular dichroism analysis, pre-incubation assay, β-sheet at 218 nm; format: biochemical; conditions: CD 218 nm, 0.02M Tris pH 7.4
# T2 construct: Prepare a fresh 40 μm solution of Aβ(1-40) in 0.02M Tris, pH 7.4; made in house; host or cells: chemical synthesis (FMOC), HPLC purified
# Description: The assay is conducted as follows:
# Instrument: JASCO J-715 Spectropolarimeter.
# Cell/cuvette: Hellma quartz (QS) with 1.0 mm pathlength Room temperature. Wavelength interval: 250 nm-190 nm.
# Band width: 1.0 nm Response time: 1 sec Scanning speed: 20 nm/min Number of accumulations/spectrum: 5
# 1. Prepare a fresh 40 μm solution of Aβ(1-40) in 0.02M Tris, pH 7.4.
# 2. Prepare a 1 mM solution of test compounds in 0.02M Tris, pH 7.4.
# 3. Combine equal volumes of the Aβ(1-40) and test compound solutions.
# 4. Incubate the mixtures for 19 h.
# 5. Take the CD spectrum using the parameters above.
# 6. Return the mixtures to the incubator and incubate to 43 h.
# 7. Take the CD spectrum using the parameters above. • Inhibition of Aβ40 assembly/aggregation is determined by comparing the amount of b-sheet structure) appearing at lambda=218 nm) obtained in control and in treated sample at each timepoint.
# [3] = target: T3, IAPP (Homo sapiens, UniProt P10997); test: Thioflavine T spectroscopy, rate of amyloid fibril formation; format: biochemical; conditions: ThT 62.5 μM; excitation 440 nm, emission 482 nm
# T3 sequence (P10997 34-70 limits assumed): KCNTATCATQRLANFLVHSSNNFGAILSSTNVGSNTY
# Description: Detection of ThT fluorescence can be used as a sensitive assay for amyloid fibril formation under different conditions. This assay has been used in experiments to determine the effects of compounds of the invention on amyloid fibril formation.
# Human IAPP was dissolved in 40% trifluoroethanol and freeze-dried into conveniently-sized aliquots. IAPP was prepared immediately before the measurements by dissolving in 40% 1,1,1,3,3,3-hexafluoro-2-propanol (HFIP) in water to maintain the peptide in alpha helical conformation and soluble. A stock solution of ThT (2.5 mM) was prepared, 7.9 mg in 10 mL Tris-HCl pH 7.0 and filtered (0.22 μm). Solutions were kept in the dark until use. Fluorescence was examined at 440 nm excitation (slit 5 nm), and emission at 482 nm (slit 10 nm) with stirring. […] of ThT stock (final concentration 62.5 μM) was added to peptide sample and made up to 1 mL in the cuvette. The sample was stirred for 5 min. before taking a reading. Measurements were made at an initial time point (5 min. from sample preparation), at intervals over the next 4-6 h and after overnight incubation at room temperature.
# [4] = target: T3, IAPP; test: Circular dichroism analysis of IAPP-associated fibril formation (Example 7); format: biochemical; set-up: add 10 μL of 10 mg/mL IAPP stock solution (final 100 ng peptide)
# Description: Circular dichroism analysis was conducted to confirm the activity of certain therapeutic compounds in preventing or inhibiting IAPP-associated fibril formation in accordance with the present disclosure by determining the presence or absence of […] conformation.
# Instrument: JASCO J-715 Spectropolarimeter
# Cell cuvette: Hellma quartz (QS) with 1.0 mm pathlength
# Wavelength interval: 250 nm-190 nm
# Scanning speed: 20 nm/min
# The assay, a co-incubation procedure, examines the ability of a compound or substance to inhibit the assembly of amyloid fibrils, e.g., to test for the presence of the amyloidotic β-sheet conformation in the presence of soluble IAPP. Samples are run in the presence and absence (i.e., water alone) of buffering agent, which is done to determine if competitive effects are seen with the ionic buffer (usually phosphate).
# Add components used at a molar ratio of 1:10 [ peptide:compound]; add 10 μL of 10 mg/mL IAPP stock solution (final […] peptide) to the aqueous solution containing compound to a final volume of 400 μL. The pH of the final assay solution is measured to ensure there is no fluctuation and the spectrum is accumulated using the parameters as shown above.
# Add desired amount of compound to achieve a 1:10 molar ratio in 10 mM phosphate buffer, pH 7. Add 10 μL of 10 mg/mL IAPP stock solution (final peptide 100 μg) to the phosphate buffered solution containing the compound and bring to a final volume of 400 μL. The pH of the final assay solution is measured to ensure there is no fluctuation and the spectrum is accumulated using the parameters as shown above.
# In both assays, a control sample is run with each test group. This control contains peptide only in water or buffer at a similar final volume of 400 μl. Spectra for the control are collected initially (first run) and at the end of the test (final run) to ensure that the peptide has not undergone extensive aggregation during the course of the assay. Spectra for the controls are used to compare with the measurements obtained with the treated samples.
# Make fresh 1 mg/mL stock solution of IAPP in 10 mM phosphate buffer, pH 7. Add desired amount of compound to achieve a 1:10 molar ratio in 10 mM phosphate buffer, pH 7. Incubate for 3 days at room temperature. Make up to final volume of 400 μL with 10 mM phosphate buffer, pH 7. The pH of the final assay solution is measured to ensure there is no fluctuation and the spectrum is accumulated using the parameters as shown above.
# A similar control is run for comparative purposes.
# Plots of the spectra (control and treated) are individually assembled and the changes in ellipticity at 218 nm are examined. This minimum is directly correlated with the amount of β-sheet present in the sample. Changes in either a positive or negative direction are noted and a relative value (“active” or “not active”) assigned to the compound as a measure of activity. In a subsequent experiment with the compounds at a molar ratio of 1:5 [ peptide:compound], the degree of randomness was noted, an indication of the ability of the compounds to prevent amyloid aggregation. A more positive number indicates less β-sheet formation. The ability of a compound to prevent β-sheet formation for at least 24 h is important, as the non-aggregated amyloid fibrils will be excreted in the soluble form. In the control noted below, the decrease in CD (mdegs) may indicate that some of the peptide is aggregating under these conditions.
# [5] = 6.25 mg/ml in drinking solution
# [6] = 12.5 mg/ml in drinking solution
# [7] = 25.0 mg/ml in drinking solution
# [8] = molar ratio 1:5 peptide:compound, 24 h
# [9] = molar ratio 1:5 peptide:compound
# [10] = molar ratio 1:5 peptide:compound, more positive = less β-sheet
# T2 sequence (P05067 672-711 limits assumed): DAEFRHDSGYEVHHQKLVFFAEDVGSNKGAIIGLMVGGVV
Structure (SMILES),"% PC (splenic AA fibrils, % of positive control) [1, 5]","Activity (in vivo, secondary amyloidosis) [1]","relative inhibition compared to Aβ alone, incubation time 0 h [2]","relative inhibition compared to Aβ alone, incubation time 19 h [2]","relative inhibition compared to Aβ alone, incubation time 43 h [2]","% PC (splenic AA fibrils, % of positive control) [1, 6]",other results
"O=S(=O)(O)CCCN1CCC2=C(CCCC2)C1 [XVIII, 3-[2-(1,2,3,4,5,6,7,8-octahydroisoquinolinyl)]-1-propanesulfonic acid]",86% PC,Moderate,,,,,"% PC (splenic AA fibrils, % of positive control) ([1]; 3.13 mg/ml in drinking solution): 74% PC"
"O=S(=O)(O)CCCN1CCc2ccccc21 [VII, 3-(1-indolinyl)-1-propanesulfonic acid]",94 % PC and 91 % PC,Moderate,+ (+: 0-25%),++ (++: 25-50%),++ (++: 25-50%),83% PC,"% PC (splenic AA fibrils, % of positive control) [1, 7]: 71 % PC and 97 % PC"
"COc1cc2c(cc1OC)CN(CCCS(=O)(=O)O)CC2 [I, 3-[2-(6,7-dimethoxy-1,2,3,4-tetrahydroisoquinolinyl)]-1-propanesulfonic acid]",87 % PC,Moderate,,,,76 % PC and 68 % PC,"% PC (splenic AA fibrils, % of positive control) [1, 7]: 69% PC"
"N[C@@H](COP(=O)(O)O)C(=O)O [LVXII, O-phospho-L-serine]",,,,,,,"IAPP-associated fibril assembly (ThT fluorescence) [3]: inhibit or prevent IAPP-associated fibril assembly; Conformation at 24 h [4, 8]: Random; Conformation at 48 h [4, 9]: β; CD at 48 h [4, 10]: −2.0 mdegs; Conformation at T0 [4, 9]: Random"
"O=S(=O)(O)NC1CCCCC1 [LVXI, cyclohexylsulfamic acid]",,,,,,,"IAPP-associated fibril assembly (ThT fluorescence) [3]: inhibit or prevent IAPP-associated fibril assembly; Conformation at 24 h [4, 8]: β; CD at 24 h ([4]; molar ratio 1:5 peptide:compound, 24 h, more positive = less β-sheet): (−1.1) mdegs; Conformation at 48 h [4, 9]: β; CD at 48 h [4, 10]: −0.8 mdegs; Conformation at T0 [4, 9]: Random; Activity (change in ellipticity at 218 nm) ([4]; molar ratio 1:10 peptide:compound): Active"
"N[C@@H](Cc1cccc(CS(=O)(=O)O)c1)C(=O)O [LVXIII, 3-Sulfomethyl-L-phenylalanine]",,,— (No effect compared to Aβ alone),++++ (++++: 75-100%),— (No effect compared to Aβ alone),,
"O=S(=O)(O)CCCN1CCCc2ccccc21 [III, 3-[1-(1,2,3,4-tetrahydroquinolinyl)]-1-propanesulfonic acid]",87% PC,Moderate,— (No effect compared to Aβ alone),+ (+: 0-25%),++ (++: 25-50%),54 % PC and 67 % PC and 56 % PC,"% PC (splenic AA fibrils, % of positive control) ([1]; 3.5 mg/ml in drinking solution): 113% PC; % PC (splenic AA fibrils, % of positive control) [1, 7]: 82 % PC and 77 % PC"
"O=C[C@H](NCCCS(=O)(=O)O)[C@@H](O)[C@H](O)[C@H](O)CO [XX, 2-deoxy-2-(3-sulfopropyl)amino-d-glucose]",94% PC,Moderate,,,,69% PC,
"CC(=O)NCCCS(=O)(=O)O [VIII, 3-acetylamino-1-propanesulfonic acid]",,,+ (+: 0-25%),++++ (++++: 75-100%),+++ (+++: 50-75%),,
"COc1ccc2c(c1)CCN(CCCS(=O)(=O)O)C2 [IX, 3-[2-(6-methoxy-1,2,3,4-tetrahydroisoquinolinyl)]-1-propanesulfonic acid]",74 % PC and 40 % PC,Active,+ (+: 0-25%),+++ (+++: 50-75%),++ (++: 25-50%),64 % PC and 38 % PC,
"O=C(NCCCS(=O)(=O)O)c1ccccc1 [X, 3-benzoylamino-1-propanesulfonic acid]",,,+ (+: 0-25%),++ (++: 25-50%),++ (++: 25-50%),,

# Source: patent publication US20110281951A1, “Compositions and methods for treating amyloidosis” (priority 1999, published 2011)
